Drawing on publication PMC12030043, “Preparation and Therapeutic Evaluation of Engineered Semaglutide and Statin–Lipid Conjugate-Based Nanoparticle” (Pharmaceutics, 2025), this text covers zeta potential and cell viability for one compound.

Data set [1] in a line: Zeta potential measurement. It counts as physicochemical. The settings on record: Zetasizer Nano; RLC alone and semaglutide–RLC (1:10) formulation; mean ± S.D. On the procedure:
To determine the optimal formulation and final composition of the semaglutide–RLC nanoparticles (SRLC NPs), a precipitation evaluation experiment was conducted using various mass ratios (1:10, 1:20, 1:30, w/w) of semaglutide to RLC. Based on stability and particle size analysis, the 1:10 ratio was selected as the optimal formulation, and this ratio was maintained in the final product composition to ensure consistency in therapeutic efficacy and physicochemical properties. The resulting mixture was used immediately without undergoing a separate freeze-drying process. For nanoparticle preparation, semaglutide ([…]) was dissolved in 1 mL of DW, while RLC ([…]) was dissolved in 1 mL of DMSO. […] The stability of each formulation was assessed by measuring particle size at multiple time points (0, 0.5, 1, 2, 3, 4, and 5 days) using dynamic light scattering (DLS; Zetasizer Nano, Malvern Instruments, Worcestershire, UK). The zeta potential of both RLC alone and the semaglutide–RLC (1:10) formulation was also measured to evaluate the surface charge and colloidal stability of the nanoparticles. Additionally, in vivo stability was evaluated by preparing 1 mL of Dulbecco’s phosphate-buffered saline (DPBS) containing 10% fetal bovine serum (FBS) and 5% DMSO, followed by particle size measurements at different time points (0, 0.5, 1, and 2 days). […]

For another data set, the system named is fibroblast cells. The data set can be described thus: Cytotoxicity assay in fibroblast cells (EZ-Cytox). It counts as cell-based. The settings on record: 100 µg/mL, 24 h, absorbance 450 nm/600 nm, relative to untreated control, mean ± S.D., n = 5. On the procedure: The cytotoxicity of the RLC and SRLC nanoparticles was evaluated using fibroblast cells obtained from the Korean Cell Line Bank (Seoul, Republic of Korea). The fibroblast cells were cultured in high-glucose Dulbecco’s modified Eagle’s medium (DMEM) supplemented with 10% (v/v) fetal bovine serum (FBS) and 1% antibiotic–antimycotic solution. The cells were then seeded into a 96-well culture plate at a density of 1.0 × 10^4 cells per well and incubated for 1 h at 37 °C in a humidified atmosphere containing 5% CO2 to allow stabilization. Following stabilization, the cells were treated with RLC and SRLC nanoparticles at concentrations ranging from 0.1 to 100 […] for 24 h. Cell viability (n = 5) was evaluated using the EZ-Cytox cell viability assay kit, with absorbance readings taken at 450 nm and 600 nm using a microplate reader (SPECTROstar Nano, BMG LABTECH, Ortenberg, Germany). The viability of the treated cells was determined by comparing the UV absorbance values of the samples to those of the untreated control group.
To evaluate the cytotoxic effects of SRLC NPs, a cytotoxicity assay was performed using fibroblast cells at concentrations ranging from 0.1 to 100 µg/mL (Figure 6A).

Consider `CC(C)c1nc(N(C)S(C)(=O)=O)nc(-c2ccc(F)cc2)c1C=CC(O)CC(O)CC(=O)NCCNC(=O)CCC(C)C1CCC2C3C(O)CC4CC(O)CCC4(C)C3CCC12C` (centres unmarked) [RLC], for which, in data set [1], the zeta potential is −22.08 ± 0.48 mV. The cell viability in the data set with fibroblast cells came out at 85.60 ± 2.87%.

One may read the cell viability as the share of living cells, or the viability signal relative to a control. Low values mean more harm to the cells, high ones less harm to the cells.
